The text below walks through data of ChEMBL document CHEMBL1136031, “8-Aryl xanthines potent inhibitors of phosphodiesterase 5” (Bioorg Med Chem Lett, 2002).

One assay has as its target Phosphodiesterase 6. Briefly: Inhibitory concentration against bovine retina phosphodiesterase 6 activity. In kind it is tissue-based.
Assay [1] is described as follows: Ratio of IC50 against human platelet PDE5 to that against bovine retina PDE6.
Assay [2] addresses cGMP-specific 3',5'-cyclic phosphodiesterase (Homo sapiens, UniProt O76074). Briefly: Inhibitory activity against human platelet Phosphodiesterase 5 (PDE5).

On Phosphodiesterase 6, `CCCOc1ccc(S(=O)(=O)N2CCN(CC)CC2)cc1-c1nc2c(=O)n(C)c(=O)n(CC(C)C)c2[nH]1` came in with an IC50 of 3 nM. In assay [1], the Ratio was 0.5.

Molecule `CCCCCCn1c(=O)n(C)c(=O)c2[nH]c(-c3cc(S(=O)(=O)N4CCN(C)CC4)ccc3OCC)nc21` came in with an IC50 in assay [2] of 130 nM. The molecule `CC(C)COc1ccc(S(=O)(=O)N2CCN(C)CC2)cc1-c1nc2c([nH]1)c(=O)n(C)c(=O)n2CC(C)C` yielded an IC50 in assay [2] of 93 nM. This IC50 and that of the molecule before are within 1.5-fold of each other. As for `CCCCOc1ccccc1-c1nc2c(=O)n(C)c(=O)n(CC(C)C)c2[nH]1`, the IC50 against Phosphodiesterase 6 was found to be 436 nM. Moreover, the Ratio in assay [1] worked out at 3.2.

Take `CCCCOc1ccccc1-c1nc2c([nH]1)c(=O)n(C)c(=O)n2CC(C)C`: the IC50 in assay [2] is 135 nM. In turn, `CCOc1ccc(S(=O)(=O)N2CCN(CCO)CC2)cc1-c1nc2c([nH]1)c(=O)n(C)c(=O)n2CC(C)C` displayed an IC50 in assay [2] of 19 nM. `CCCCCOc1ccccc1-c1nc2c([nH]1)c(=O)n(C)c(=O)n2CC(C)C` displayed an IC50 in assay [2] of 551 nM. As to `CC(C)Cn1c(=O)n(C)c(=O)c2[nH]c(-c3ccccc3OCc3ccccc3)nc21`, the IC50 in assay [2] is greater than 10000 nM. With `CCCOc1ccc(S(=O)(=O)N2CCN(CC)CC2)cc1-c1nc2c([nH]1)c(=O)n(C)c(=O)n2CC(C)C`, the IC50 in assay [2] was determined as 5.5 nM. In turn, `CCOc1ccc(S(=O)(=O)N2CCN(CCN(C)C)CC2)cc1-c1nc2c(=O)n(C)c(=O)n(CC(C)C)c2[nH]1` displayed an IC50 against Phosphodiesterase 6 of 146 nM. The Ratio in assay [1] stood at 2.5.

In turn, `CCCOc1ccc(S(=O)(=O)N2CCN(CCN(C)C)CC2)cc1-c1nc2c(=O)n(C)c(=O)n(CC(C)C)c2[nH]1` registered an IC50 against Phosphodiesterase 6 of 37 nM. Besides, the Ratio in assay [1] was 1.5. In assay [2], `CC(C)Cn1c(=O)n(C)c(=O)c2[nH]c(-c3ccccc3N(C)C)nc21` registered an IC50 greater than 10000 nM. Same read-out and setting: with `CSc1ccccc1-c1nc2c(=O)n(C)c(=O)n(CC(C)C)c2[nH]1` the figure was 5420 nM.

In turn, `CCOc1ccc(S(=O)(=O)N2CCN(C)CC2)cc1-c1nc2c(=O)n(C)c(=O)n(CC3CCCCC3)c2[nH]1` returned an IC50 in assay [2] of 160 nM. On the same count and under the same terms, with `CCCOc1ccc(S(=O)(=O)N2CCN(CCN(C)C)CC2)cc1-c1nc2c([nH]1)c(=O)n(C)c(=O)n2CC(C)C` the figure was 24 nM; with `CCCOc1ccc(S(N)(=O)=O)cc1-c1nc2c([nH]1)c(=O)n(C)c(=O)n2CC(C)C`, 5 nM.

In turn, `CCCOc1ccc(S(=O)(=O)N2CCN(CCOC)CC2)cc1-c1nc2c(=O)n(C)c(=O)n(CC(C)C)c2[nH]1` had a 50% inhibitory concentration (IC50) against Phosphodiesterase 6 of 91 nM. In addition, the Ratio in assay [1] came out at 7.5. For the molecule `CCOc1ccc(S(=O)(=O)N2CCN(C)CC2)cc1-c1nc2c([nH]1)c(=O)[nH]c(=O)n2C`, the IC50 in assay [2] was greater than 10000 nM.

As to `CCCn1c(=O)n(C)c(=O)c2[nH]c(-c3cc(S(=O)(=O)N4CCN(C)CC4)ccc3OCC)nc21`, the IC50 against Phosphodiesterase 6 is 345 nM; in assay [2], 100 nM.

Consider `CC(C)COc1ccc(S(=O)(=O)N2CCN(C)CC2)cc1-c1nc2c(=O)n(C)c(=O)n(CC(C)C)c2[nH]1`, for which, at Phosphodiesterase 6, the IC50 was 102 nM. Besides, the Ratio in assay [1] came to 1.1. As for `CC(C)Cn1c(=O)n(C)c(=O)c2[nH]c(-c3ccccc3)nc21`, the IC50 in assay [2] was greater than 10000 nM.

Molecule `CC(C)Cn1c(=O)n(C)c(=O)c2[nH]c(-c3ccccc3O)nc21` gave an IC50 in assay [2] greater than 10000 nM. Regarding `CC(C)Cn1c(=O)n(C)c(=O)c2[nH]c(-c3ccccc3F)nc21`, the IC50 in assay [2] was greater than 10000 nM.

Molecule `CCOc1ccc(S(=O)(=O)N2CCN(CC)CC2)cc1-c1nc2c([nH]1)c(=O)n(C)c(=O)n2CC(C)C` displayed a half-maximal inhibitory concentration (IC50) in assay [2] of 26 nM. In other words, the double-digit nanomolar range. Take `CCOc1ccc(S(=O)(=O)N2CCN(CCN(C)C)CC2)cc1-c1nc2c([nH]1)c(=O)n(C)c(=O)n2CC(C)C`: the IC50 in assay [2] was 63 nM. Same read-out and setting: with `CNc1ccccc1-c1nc2c([nH]1)c(=O)n(C)c(=O)n2CC(C)C` the figure was greater than 10000 nM; with `CCCOc1ccc(S(=O)(=O)N2CCN(CCOC)CC2)cc1-c1nc2c([nH]1)c(=O)n(C)c(=O)n2CC(C)C`, 12 nM. In assay [2], `CC(C)COc1ccccc1-c1nc2c([nH]1)c(=O)n(C)c(=O)n2CC(C)C` yielded an IC50 of 105 nM.

As for `COCCOc1ccccc1-c1nc2c([nH]1)c(=O)n(C)c(=O)n2CC(C)C`, inhibition in assay [2] was half-maximal at 1500 nM (IC50).

Broadly, the IC50 is the concentration that gives 50% inhibition. A lower IC50 goes with inhibition by little substance.
